Consider 24 compounds from US4760136A, “Chartreusin derivatives and salts thereof” (Ishihara Sangyo Kaisha, Ltd., priority 1984, dated 1988).

The subject of one data set is P-388 leukemia cells. Description: Antitumor activity: P-388 leukemia cells inoculated intraperitoneally, drug administered intravenously, BDF1 mice. It is filed as in vivo. The settings on record: Mus musculus, P388, iv, BDF1 mice, P-388 i.p., read-out: T/C (%) of MST; for response vs control in vivo at 40 mg/kg: dose c: 40 mg/kg × 3, i.v. on days 1, 5 and 9; for response vs control in vivo at 80 mg/kg: dose f: 80 mg/kg × 3, i.v. on days 1, 5 and 9; for response vs control in vivo at 20 mg/kg: dose b: 20 mg/kg × 3, i.v. on days 1, 5 and 9; for response vs control in vivo at 60 mg/kg: dose e: 60 mg/kg × 3, i.v. on days 1, 5 and 9; for response vs control in vivo at 10 mg/kg: dose a: 10 mg/kg × 3, i.v. on days 1, 5 and 9. The method, boiled down: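 Drug dosing was intravenous on the first, fifth and ninth days after intraperitoneal inoculation of P-388 leukemia cells (1×10^6 per mouse) into BDF1 mice. Vehicles were physiological saline alone, or saline with small amounts of sodium carboxymethyl cellulose or Tween-80.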

Data set [1] can be described thus: Acute toxicity, intravenous (once), ddY mice. It is filed as in vivo. Particulars: mouse, in vivo, iv, formulated per Preparation Example. An excerpt: In Table 7 are shown acute toxicity values (LD50, mg/kg) in ddY mice in the case of intravenously administering (once) each of the compounds of this invention in the form of preparations shown in the Preparation Examples shown in Table 7.

Bounds are passed on as bounds.

Consider `CO[C@H]1[C@@H](O)[C@@H](C)O[C@H](O[C@H]2[C@H](Oc3cccc4c(OC(=O)C5CC5)c5c(=O)oc6ccc(C)c7c(=O)oc(c34)c5c67)O[C@H](C)[C@@H]3OC(C)(C)O[C@@H]32)[C@@H]1O` [Compound No. 177], for which, in the data set on P-388 leukemia cells, the response vs control in vivo at 40 mg/kg came to 153% and the response vs control in vivo at 80 mg/kg worked out at 208%. The 50% lethal dose (LD50) in data set [1] is ≥ 80 mg/kg.

As for `CO[C@H]1[C@@H](O)[C@@H](C)O[C@H](O[C@H]2[C@H](Oc3cccc4c(OC(=O)C5CC5C)c5c(=O)oc6ccc(C)c7c(=O)oc(c34)c5c67)O[C@H](C)[C@@H]3OC(C)(C)O[C@@H]32)[C@@H]1O` (stereo partly drawn) [Compound No. 178], in the data set on P-388 leukemia cells, the response vs control in vivo at 40 mg/kg came to 142% and the response vs control in vivo at 80 mg/kg worked out at 181%. In data set [1], the 50% lethal dose (LD50) is ≥ 80 mg/kg.

Take `CO[C@H]1[C@@H](O)[C@@H](C)O[C@H](O[C@H]2[C@H](Oc3cccc4c(OC(=O)c5ccc(Br)cc5)c5c(=O)oc6ccc(C)c7c(=O)oc(c34)c5c67)O[C@H](C)[C@@H]3OC(C)(C)O[C@@H]32)[C@@H]1O` [Compound No. 179]: in the data set with P-388 leukemia cells, the response vs control in vivo at 40 mg/kg came to 136% and the response vs control in vivo at 80 mg/kg amounted to 208%. In addition, the LD50 in data set [1] was ≥ 80 mg/kg.

Regarding `CO[C@H]1[C@@H](O)[C@@H](C)O[C@H](O[C@H]2[C@H](Oc3cccc4c(OC(=O)c5ccc(Cl)cc5Cl)c5c(=O)oc6ccc(C)c7c(=O)oc(c34)c5c67)O[C@H](C)[C@@H]3OC(C)(C)O[C@@H]32)[C@@H]1O` [Compound No. 180], in the data set with P-388 leukemia cells, the response vs control in vivo at 40 mg/kg is 145% and the response vs control in vivo at 80 mg/kg was 208%. In data set [1], the median lethal dose (LD50) was ≥ 80 mg/kg.

`CO[C@H]1[C@@H](O)[C@@H](C)O[C@H](O[C@H]2[C@H](Oc3cccc4c(OC(=O)c5ccccc5Cl)c5c(=O)oc6ccc(C)c7c(=O)oc(c34)c5c67)O[C@H](C)[C@@H]3OC(C)(C)O[C@@H]32)[C@@H]1O` [Compound No. 181]: in the data set on P-388 leukemia cells, the response vs control in vivo at 40 mg/kg stood at 145% and the response vs control in vivo at 80 mg/kg was 208%. In data set [1], the LD50 was ≥ 80 mg/kg.

On to `CO[C@H]1[C@@H](O)[C@@H](C)O[C@H](O[C@H]2[C@H](Oc3cccc4c(OC(=O)c5ccc(C(F)(F)F)cc5)c5c(=O)oc6ccc(C)c7c(=O)oc(c34)c5c67)O[C@H](C)[C@@H]3OC(C)(C)O[C@@H]32)[C@@H]1O` [Compound No. 182], for which, in the data set on P-388 leukemia cells, the response vs control in vivo at 40 mg/kg came out at 153% and the response vs control in vivo at 80 mg/kg worked out at 192%. In addition, the 50% lethal dose (LD50) in data set [1] was ≥ 80 mg/kg.

With `CO[C@H]1[C@@H](O)[C@@H](C)O[C@H](O[C@H]2[C@H](Oc3cccc4c(OC(=O)c5ccc(C#N)cc5)c5c(=O)oc6ccc(C)c7c(=O)oc(c34)c5c67)O[C@H](C)[C@@H]3OC(C)(C)O[C@@H]32)[C@@H]1O` [Compound No. 183], in the data set with P-388 leukemia cells, the response vs control in vivo at 40 mg/kg came to 153% and the response vs control in vivo at 80 mg/kg was determined as 192%. Moreover, the 50% lethal dose (LD50) in data set [1] was ≥ 80 mg/kg.

In the case of `COc1cccc(C(=O)Oc2c3cccc(O[C@@H]4O[C@H](C)[C@@H]5OC(C)(C)O[C@@H]5[C@H]4O[C@H]4O[C@H](C)[C@H](O)[C@H](OC)[C@H]4O)c3c3oc(=O)c4c(C)ccc5oc(=O)c2c3c54)c1` [Compound No. 184], in the data set on P-388 leukemia cells, the response vs control in vivo at 40 mg/kg amounted to 162% and the response vs control in vivo at 80 mg/kg is 199%. Besides, the LD50 in data set [1] was ≥ 80 mg/kg.

Turning to `CO[C@H]1[C@@H](O)[C@@H](C)O[C@H](O[C@H]2[C@H](Oc3cccc4c(OC(=O)c5ccc(Cl)cc5)c5c(=O)oc6ccc(C)c7c(=O)oc(c34)c5c67)O[C@H](C)[C@@H]3OC(C)(C)O[C@@H]32)[C@@H]1O` [Compound No. 185], in the data set with P-388 leukemia cells, the response vs control in vivo at 40 mg/kg is 142% and the response vs control in vivo at 80 mg/kg stood at 192%. Further, the LD50 in data set [1] is ≥ 80 mg/kg.

`CO[C@H]1[C@@H](O)[C@@H](C)O[C@H](O[C@H]2[C@H](Oc3cccc4c(OC(=O)c5ccc([N+](=O)[O-])cc5)c5c(=O)oc6ccc(C)c7c(=O)oc(c34)c5c67)O[C@H](C)[C@@H]3OC(c4ccccc4)O[C@@H]32)[C@@H]1O` (stereo partly drawn) [Compound No. 186]: the response vs control in vivo at 40 mg/kg in the data set on P-388 leukemia cells was 176%. Besides, in data set [1], the median lethal dose (LD50) was ≥ 80 mg/kg.

For `CO[C@H]1[C@@H](O)[C@@H](C)O[C@H](O[C@H]2[C@H](Oc3cccc4c(OC(=O)c5ccc(C#N)cc5)c5c(=O)oc6ccc(C)c7c(=O)oc(c34)c5c67)O[C@H](C)[C@@H]3OC(c4ccccc4Cl)O[C@@H]32)[C@@H]1O` (stereo partly drawn) [Compound No. 187], in the data set on P-388 leukemia cells, the response vs control in vivo at 40 mg/kg turned out to be 130% and the response vs control in vivo at 80 mg/kg was found to be 216%. In data set [1], the LD50 was ≥ 80 mg/kg.

Regarding `CCOCCC(=O)Oc1c2cccc(O[C@@H]3O[C@H](C)[C@@H]4OC(c5cccc(Cl)c5)O[C@@H]4[C@H]3O[C@H]3O[C@H](C)[C@H](O)[C@H](OC)[C@H]3O)c2c2oc(=O)c3c(C)ccc4oc(=O)c1c2c43` (stereo partly drawn) [Compound No. 188], the response vs control in vivo at 40 mg/kg with P-388 leukemia cells is 193%. For the same compound, in data set [1], the LD50 is ≥ 60 mg/kg.

Consider `CO[C@H]1[C@@H](O)[C@@H](C)O[C@H](O[C@H]2[C@H](Oc3cccc4c(OC(=O)c5ccccc5Cl)c5c(=O)oc6ccc(C)c7c(=O)oc(c34)c5c67)O[C@H](C)[C@@H]3OC(c4cccc([N+](=O)[O-])c4)O[C@@H]32)[C@@H]1O` (stereo partly drawn) [Compound No. 189], for which, in the data set on P-388 leukemia cells, the response vs control in vivo at 40 mg/kg was determined as 146% and the response vs control in vivo at 80 mg/kg is 214%. Also, the median lethal dose (LD50) in data set [1] is ≥ 80 mg/kg.

For the compound `CO[C@H]1[C@@H](O)[C@@H](C)O[C@H](O[C@H]2[C@H](Oc3cccc4c(OC(=O)C5CC5C)c5c(=O)oc6ccc(C)c7c(=O)oc(c34)c5c67)O[C@H](C)[C@@H]3OC(c4ccc(Cl)cc4)O[C@@H]32)[C@@H]1O` (stereo partly drawn) [Compound No. 190], in the data set on P-388 leukemia cells, the response vs control in vivo at 40 mg/kg came to 145% and the response vs control in vivo at 80 mg/kg was 208%. The median lethal dose (LD50) in data set [1] is ≥ 80 mg/kg.

Regarding `CCCC(=O)Oc1c2cccc(OC3OC(C)C4OC(c5ccccc5)OC4C3OC3OC(C)C(O)C(OC)C3O)c2c2oc(=O)c3c(C)ccc4oc(=O)c1c2c43` (stereo not drawn) [Compound No. 191, 6-O-(n-Butyryl)-3',4'-O-Benzylidene-Chartreusin], in the data set with P-388 leukemia cells, the response vs control in vivo at 20 mg/kg was 155%. Also, the 50% lethal dose (LD50) in data set [1] is ≥ 40 mg/kg.

As to `CCCCCC(=O)Oc1c2cccc(OC3OC(C)C4OC(c5ccccc5)OC4C3OC3OC(C)C(O)C(OC)C3O)c2c2oc(=O)c3c(C)ccc4oc(=O)c1c2c43` (stereo not drawn) [Compound No. 196, 6-O-(n-Hexanoyl)-3',4'-O-Benzylidene-Chartreusin], the response vs control in vivo at 40 mg/kg with P-388 leukemia cells was determined as 208%. Besides, the LD50 in data set [1] is ≥ 80 mg/kg.

Consider `COC1C(O)C(C)OC(OC2C(Oc3cccc4c(OC(C)=O)c5c(=O)oc6ccc(C)c7c(=O)oc(c34)c5c67)OC(C)C3OC(C)(C)OC32)C1O` (stereo not drawn) [Compound No. 203, 6-O-Acetyl-3',4'-O-Isopropylidene-Chartreusin], for which the response vs control in vivo at 60 mg/kg in the data set on P-388 leukemia cells amounted to 180%. For the same compound, the LD50 in data set [1] is ≥ 60 mg/kg.

On to `COC1C(O)C(C)OC(OC2C(Oc3cccc4c(OC(=O)C5CC=CCC5)c5c(=O)oc6ccc(C)c7c(=O)oc(c34)c5c67)OC(C)C3OC(C)(C)OC32)C1O` (stereo not drawn) [Compound No. 223, 6-O-(3-Cyclohexene-1-Carbonyl)-3',4'-O-Isopropylidene-Chartreusin], for which the response vs control in vivo at 60 mg/kg in the data set with P-388 leukemia cells was found to be 172%. Further, the LD50 in data set [1] is ≥ 60 mg/kg.

In the case of `COC1C(O)C(C)OC(OC2C(Oc3cccc4c(OC(=O)CC(C)CC(C)(C)C)c5c(=O)oc6ccc(C)c7c(=O)oc(c34)c5c67)OC(C)C3OC(c4ccccc4)OC32)C1O` (stereo not drawn) [Compound No. 236, 6-O-(3,5,5-Trimethyl-n-Hexanoyl)-3',4'-O-Benzylidene-Chartreusin], the response vs control in vivo at 40 mg/kg in the data set with P-388 leukemia cells worked out at 145%. The median lethal dose (LD50) in data set [1] was ≥ 80 mg/kg.

As for `COC1C(O)C(C)OC(OC2C(Oc3cccc4c(OC(=O)CCC5CCCCC5)c5c(=O)oc6ccc(C)c7c(=O)oc(c34)c5c67)OC(C)C3OC(C)(C)OC32)C1O` (stereo not drawn) [Compound No. 240, 6-O-(3-Cryclohexyl-Propionyl)-3',4'-O-Isopropylidene-Chartreusin], in the data set on P-388 leukemia cells, the response vs control in vivo at 60 mg/kg was 158%. Besides, in data set [1], the 50% lethal dose (LD50) is ≥ 60 mg/kg.

For `COC1C(O)C(C)OC(OC2C(Oc3cccc4c(OC(=O)CCNC(=O)CN)c5c(=O)oc6ccc(C)c7c(=O)oc(c34)c5c67)OC(C)C3OC(c4ccccc4)OC32)C1O` (stereo not drawn) [compound 10], in the data set on P-388 leukemia cells, the response vs control in vivo at 20 mg/kg is 161% and the response vs control in vivo at 40 mg/kg came to 197%. Moreover, the LD50 in data set [1] is ≥ 40 mg/kg.

As to `COC1C(O)C(C)OC(OC2C(Oc3cccc4c(OC(=O)CCN5CCOCC5)c5c(=O)oc6ccc(C)c7c(=O)oc(c34)c5c67)OC(C)C3OC(c4ccccc4)OC32)C1O` (stereo not drawn) [compound 32], in the data set on P-388 leukemia cells, the response vs control in vivo at 10 mg/kg was 146% and the response vs control in vivo at 20 mg/kg came out at 186%. Besides, the 50% lethal dose (LD50) in data set [1] is ≥ 40 mg/kg.

Turning to `COC1C(O)C(C)OC(OC2C(Oc3cccc4c(OC(=O)CCNC(=O)CN)c5c(=O)oc6ccc(C)c7c(=O)oc(c34)c5c67)OC(C)C3OC(c4cccc(F)c4)OC32)C1O` (stereo not drawn) [compound 33, 6-O-(glycyl-β-alanyl)-3',4'-O-(m-fluorobenzylidene)-chartreusin phosphate], in the data set with P-388 leukemia cells, the response vs control in vivo at 10 mg/kg was 157% and the response vs control in vivo at 20 mg/kg came to 186%. The median lethal dose (LD50) in data set [1] is ≥ 40 mg/kg.

`COC1C(O)C(C)OC(OC2C(Oc3cccc4c(OC(=O)C(CN)C(C)C)c5c(=O)oc6ccc(C)c7c(=O)oc(c34)c5c67)OC(C)C3OC(c4ccccc4)OC32)C1O` (stereo not drawn) [compound 35, 6-O-(α-isopropyl-β-alanyl)-3',4'-O-benzylidene-chartreusin phosphate]: in the data set on P-388 leukemia cells, the response vs control in vivo at 40 mg/kg was 173%. Besides, the LD50 in data set [1] was ≥ 40 mg/kg.

For orientation: LD50 means the dose at which mortality reaches 50%. The low end stands for greater toxicity, the high end for lower toxicity.
